According to US7754741B2, “Pyridine derivatives as fungicidal compounds” (Bayer Cropscience S.A., priority 2003, dated 2010):

Tests used:
Details in all cases: 330 ppm; comparison compounds of WO 01/11965
Pyrenophora teres = test: In vivo test on Pyrenophora teres (barley net blotch)
Protocol: In Vivo Test on Pyrenophora teres (Barley Net Blotch)
(§1) The active ingredient tested is prepared by potter homogenisation in a concentrated suspension type formulation at 100 g/l. This suspension is then diluted with water to obtain the desired active material concentration.
(§2) Barley plants (Express variety) in starter cups, sown on a 50/50 peat soil-pozzolana substrate and grown at 12° C., are treated at the 1-leaf stage (10 cm tall) by spraying with the aqueous suspension described above. Plants, used as controls, are treated with an aqueous solution not containing the active material.
After 24 hours, the plants are contaminated by spraying them with an aqueous suspension of Pyrenophora teres spores (12,000 spores per ml). The spores are collected from a 12-day-old culture The contaminated barley plants are incubated for 24 hours at about 20° C. and at 100% relative humidity, and then for 12 days at 80% relative humidity.

Peronospora brassicae = test: In vivo test on Peronospora brassicae (cabbage downy mildew)
Protocol: In Vivo Test on Peronospora brassicae (Cabbage Downy Mildew)
as §1
Cabbage plants (Eminence variety) in starter cups, sown on a 50/50 peat soil-pozzolana substrate and grown at 18-20° C., are treated at the cotyledon stage by spraying with the aqueous suspension described above.
(§3) Plants, used as controls, are treated with an aqueous solution not containing the active material.
After 24 hours, the plants are contaminated by spraying them with an aqueous suspension of Peronospora brassicae spores (50,000 spores per ml). The spores are collected from infected plant.
The contaminated cabbage plants are incubated for 5 days at 20° C., under a humid atmosphere.
Grading is carried out 5 days after the contamination, in comparison with the control plants.
Under these conditions, good (at least 50%) to total protection is observed at a dose of 330 ppm with the following compounds :B-6,B-7, J-46, J-59.

Alternaria brassicae = test: In vivo test on Alternaria brassicae (leaf spot of crucifers)
Protocol: In Vivo Test on Alternaria brassicae (Leaf Spot of crucifers)
as §1
Radish plants (Pernot variety) in starter cups, sown on a 50/50 peat soil-pozzolana substrate and grown at 18-20° C., are treated at the cotyledon stage by spraying with the aqueous suspension described above.
as §3
After 24 hours, the plants are contaminated by spraying them with an aqueous suspension of Alternaria brassicae spores (40,000 spores per cm^3). The spores are collected from a 12-13-day-old culture.
The contaminated radish plants are incubated for 6-7 days at about 18° C., under a humid atmosphere.
Grading is carried out 6 to 7 days after the contamination, in comparison with the control plants.

Botrytis cinerea = test: In vivo test on Botrytis cinerea (cucumber grey mould)
Protocol: In Vivo Test on Botrytis cinerea (Cucumber Grey Mould)
as §1
as §2, with “Cucumber” for “Barley”, “(Marketer” for “(Express”, “18-20°” for “12°”, “cotyledon Z11” for “1-leaf”, “stage” for “stage (10 cm tall)”
After 24 hours, the plants are contaminated by depositing drops of an aqueous suspension of Botrytis cinerea spores (150,000 spores per ml) on upper surface of the leaves. The spores are collected from a 15-day-old culture and are suspended in a nutrient solution composed of: • 20 g/L of gelatin • 50 g/L of cane sugar • 2 g/L of NH4NO3 • 1 g/L of KH2PO4
The contaminated cucumber plants are settled for 5/7 days in a climatic room at 15-11° C. (day/night) and at 80% relative humidity.
Grading is carried out 5/7 days after the contamination, in comparison with the control plants. Under these conditions, good (at least 50%) to total protection is observed at a dose of 330 ppm with the following compounds :B-7, B-8, B-13, B-14, C-3, C-12, C-13, C-14, C-15, C-16, D-4, D-5, E-4, H-1, H-2, H-4, H-7, H-9, H-22, J-1, J-2, J-3, J-19, J-31, J-32, J-33, J-34, J-35, J-37, J-39, J-43, J-44, R-1, R-10, R-23, R-24, R-26, R-31, V-1, V-8.

Structure (SMILES): CCNC(=O)C(Cc1ncc(C(F)(F)F)cc1Cl)NC(=O)c1cccc([N+](=O)[O-])c1 (stereo not drawn) [compound 307, N-{1-ethylcarbamoyl-2-[3-chloro-5-(trifluoromethyl)-2-pyridinyl]ethyl}-3-nitrobenzamide, reference compound]
- efficacy against Pyrenophora teres (Pyrenophora teres): poor efficacy
- efficacy against Peronospora parasitica (Peronospora brassicae): no efficacy
- efficacy against Alternaria brassicae (Alternaria brassicae): poor efficacy
- efficacy against Botrytis cinerea (Botrytis cinerea): no efficacy

Structure (SMILES): CCNC(=O)C(Cc1ncc(C(F)(F)F)cc1Cl)NC(=O)c1ccccc1Br (stereo not drawn) [compound 310, N-{1-ethylcarbamoyl-2-[3-chloro-5-(trifluoromethyl)-2-pyridinyl]ethyl}-2-bromobenzamide, reference compound]
- efficacy against Pyrenophora teres (Pyrenophora teres): poor efficacy
- efficacy against Peronospora parasitica (Peronospora brassicae): no efficacy
- efficacy against Alternaria brassicae (Alternaria brassicae): poor efficacy
- efficacy against Botrytis cinerea (Botrytis cinerea): no efficacy

Structure (SMILES): CNC(=O)C(Cc1ncc(C(F)(F)F)cc1Cl)NC(=O)c1ccc(-c2ccccc2)cc1 (stereo not drawn) [compound 316, N-{1-methylcarbamoyl-2-[3-chloro-5-(trifluoromethyl)-2-pyridinyl]ethyl}-4-phenylbenzamide, reference compound]
- efficacy against Pyrenophora teres (Pyrenophora teres): poor efficacy
- efficacy against Peronospora parasitica (Peronospora brassicae): no efficacy
- efficacy against Alternaria brassicae (Alternaria brassicae): poor efficacy
- efficacy against Botrytis cinerea (Botrytis cinerea): no efficacy

Structure (SMILES): O=C(Cc1cccs1)NCc1ncc(C(F)(F)F)cc1Cl [compound 101, N-{[3-chloro-5-(trifluoromethyl)-2-pyridinyl]-methyl}-5-thienylacetamide, reference compound]
- efficacy against Peronospora parasitica (Peronospora brassicae): no efficacy
- efficacy against Alternaria brassicae (Alternaria brassicae): poor efficacy
- efficacy against Botrytis cinerea (Botrytis cinerea): no efficacy
